Laboratory results taken from US11209437B2, “Fluorescent probe and preparation method and use thereof” (Fluorescence Diagnosis (shanghai) Biotech Company Ltd., priority 2016, dated 2021).

Experiments:
[1] = Viscosity responsiveness: fluorescence emission spectra of probes in glycerol and methanol; assay type: physicochemical; conditions: for Emission wavelength: excited at maximum excitation wavelength of each probe; for Fluorescence ratio in glycerol to methanol: probe 1×10^−5 M
How it was run: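 Each probe, from a 1×10^−2 M DMSO stock, was diluted to a final 1×10^−5 M in glycerol and in methanol. Fluorescence emission spectra were then recorded under identical conditions at each probe's maximum excitation wavelength.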

[2] = Fluorescence of free probe prior to binding to a protein tag; assay type: physicochemical
SNAP protein tags = target: T1, SNAP protein tags (Homo sapiens, UniProt P16455, A127T/A154D/C150Q/C62A/E30R/G131K/G132T/G153L/K125A/K32I/L33F/M134L/N157G/Q115S/Q116H/R128A/R135S/S151G/S152D/S159E); assay: Fluorescence activation of probe after incubation with corresponding protein tag (SNAP); assay type: biochemical; conditions: probe 5 μM, protein tag 10 μM, 37° C., 1 hr
T1 sequence (P16455 1-182 E30R/K32I/L33F/C62A/Q115S/Q116H/K125A/A127T/R128A/G131K/G132T/M134L/R135S/C150Q/S151G/S152D/G153L/A154D/N157G/S159E): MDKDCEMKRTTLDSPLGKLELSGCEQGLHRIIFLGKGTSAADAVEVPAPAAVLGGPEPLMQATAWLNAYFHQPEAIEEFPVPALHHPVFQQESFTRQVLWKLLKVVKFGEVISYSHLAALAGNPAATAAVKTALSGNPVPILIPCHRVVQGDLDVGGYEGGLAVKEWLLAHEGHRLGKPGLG
How it was run: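 Probe (5 μM final) mixed with CLIP or SNAP protein tag (10 μM final) and incubated 1 hr at 37° C. Fluorescence intensity change measured by fluorescence spectrophotometer, with quantum yield of tag-bound probe determined.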

[3] = test system: HeLa cells with stable expression of protein tags; assay: Labeling of HeLa cells expressing protein tags vs HeLa-WT cells, confocal imaging; assay type: cell-based; conditions: probe 5 μM, 37° C., 2 hrs
Protocol: HeLa cells with stable expression of protein tags and HeLa-WT cells (HeLa primitive cells, with no protein tag expressed) were implanted in a 14 mm glass-bottom 96-well cell culture plate and stabilized for 10 hrs. Probes 1, 15, 21, 30, 56, 60, 63, 88 were added to the media, respectively and diluted to 5 μMs. The cells were incubated in a carbon dioxide incubator at 37° C. for 2 hrs, and then a Leica TPS-8 confocal microscopy was used to image the fluorescent changes of the labeled cells. […] However, for HeLa cells with protein tags expressed shown by group A in FIG. 12, strong fluorescent signals could be detected, which are nearly 300 times stronger.

HeLa cells = assay: Labeling of organelle-localized protein tags in HeLa cells without washing; assay type: cell-based; conditions: 0.2 μM probe, 2 hrs, no washing
Description: To verify that probes 1, 21, 48, 60, 66 and 77 can be used to label target proteins located by different organelles, HeLa cells were taken as an example to detect the effect of probes on labeling different subcellular proteins. HeLa cells were implanted 5000 cells per well in a 96-well glass-bottom cell culture plate. 14 hrs later, the cells were transfected with the plasmids encoding different organelle localized protein tags using Lipo2000; the original medium was removed 24 hrs after transfection, washed with a phenol-free red DMEM medium twice, and incubated with a phenol-free red medium containing 0.2 μM probes for 2 hrs, and then the cell labeling effects were detected by imaging with a leica TCS-8 confocal microscopy.

SNAP-IAA17-H2B protein = assay: Fluorescence change on AID-induced degradation of SNAP-IAA17-H2B in HeLa cells; assay type: cell-based; conditions: 1 μM probe; 120 min after indoleacetic acid
Description: To verify the correlation between the fluorescent activation of the probe of the present invention and the existence of proteins, SNAP protein in mammalian cells was taken as an example, and the fluorescence changes of SNAP protein binding probes after protein degradation were detected in HeLa cells by taking AID degradation system as an example. Firstly, HeLa cells were implanted 20,000/cm^2 in a 20 mm glass-bottom cell culture dish, and 14 hrs later, plasmids pcdna3.1-TIR1 and pcdna3.1-SNAP-IAA17-H2B were transfected by invitrogen's lipofectmain2000 transfection reagent. 24 hrs after the cell transfection, the original cell culture medium was replaced with a phenol-free red DMEM medium containing 1 μM of probe 21 to label the cells. The cell samples were incubated in a carbon dioxide incubator at 37° C. for 1 hour. After the labeling was completed, the fluorescence signal of labeled cells was detected by imaging with a Leica SP8 laser confocal microscopy, and indoleacetic acid (IAA) was added to induce SNAP-IAA17-H2B protein to degrade, and the cell fluorescence changes were detected during the protein degradation. […] When proteins exist, the fluorescence is activated, and when proteins are degraded, the fluorescence disappears, which can be used to track and monitor the degradation process of target proteins.

fusion protein CX43-SNAP = assay: Tracing assembly of CX43-SNAP intercellular channels in HeLa cells; assay type: cell-based; conditions: probe 21 2 μM 1 hour first, then probe 1 1 μM
Description: To verify that the probe of the present invention can be used to monitor the assembly and degradation process of biological macromolecules in mammalian cells in real time, the process of tracing the assembly of intercellular protein CX43 to form intercellular channels in mammalian cells by the probe was detected by taking HeLa cells as an example. The C-terminal of CX43 gene was fused with SNAP gene, and HeLa cell line with stable expression of fusion protein CX43-SNAP was constructed and obtained by lentivirus infection technology. HeLa-CX43-SNAP cell lines were implanted in a 20 mm glass-bottom cell culture dish 10 hrs before the probe labeling. To conduct labeling, a phenol-free red DMEM medium was first used to dilute the probe 21 to 2 μM to replace the original cell culture medium. Cells were incubated in a carbon dioxide incubator at 37° C. for 1 hour. The cells were then washed twice using a fresh phenol-free red DMEM medium, with unbound probe 21 removed at 2-minute intervals. Then, DMEM phenol-free red culture medium containing 1 μM probe 1 was added to label cells. Leica SP8 confocal microscopy was used to monitor for a long time the fluorescence intensity and position changes of labeled cell samples at the corresponding fluorescence channels of probes 21 and 1, as shown in FIGS. 17A and 17B, respectively. […]

SNAP protein tag [4] = target: T2, SNAP protein tag (Homo sapiens, UniProt P16455, A127T/A154D/C150Q/C62A/E30R/G131K/G132T/G153L/K125A/K32I/L33F/M134L/N157G/Q115S/Q116H/R128A/R135S/S151G/S152D/S159E); assay: In vivo labeling of SNAP protein tag expressed in mouse liver; conditions: mice, tail vein injection, 6 hrs after probe
T2 construct: expressed in transfected cells; host or cells: mouse liver after tail-vein plasmid injection
T2 sequence (P16455 1-182 E30R/K32I/L33F/C62A/Q115S/Q116H/K125A/A127T/R128A/G131K/G132T/M134L/R135S/C150Q/S151G/S152D/G153L/A154D/N157G/S159E): T1 sequence (P16455 1-182 E30R/K32I/L33F/C62A/Q115S/Q116H/K125A/A127T/R128A/G131K/G132T/M134L/R135S/C150Q/S151G/S152D/G153L/A154D/N157G/S159E)
Protocol: (§1) First, a SNAP protein tag expressing plasmid, pcdna3.1-SNAP (sample group), and a control plasmid without SNAP protein tag expressing, pcdna3.1-CAT (control group), were introduced into mice. This method dissolves plasmids in a large volume of solution and rapidly injects them into mice through tail vein injection. The mouse liver and kidneys absorb DNA and then express the target protein. 20 hrs after plasmid injection, 0.4 μM probe 88 dissolved in 200 μl PBS was injected into mice through tail vein injection to label the SNAP protein tag. 6 hrs later, the mice were dissected, and the fluorescence differences in the liver parts of different mouse samples were detected by KODAK multi-spectral in vivo imaging system. The liver fluorescence of the control plasmid pcdna3.1-CAT injected with probe 88 was very low, close to the background fluorescence level of the blank liver without the probe, while the liver of SNAP plasmid pcdna3.1-SNAP injected with probe 88 had strong fluorescence, and the signal intensity was more than 20 times higher than that of the control group.

SNAP protein tag [5] = assay: as above; conditions: mice, tail vein injection, 6 hrs after probe
Protocol: as §1

Compound | Emission wavelength [1] [nm] | Fluorescence ratio in glycerol to methanol [1] | Quantum yield of free probe [2] | Fluorescence activation multiple (SNAP protein tags) | Quantum yield of probe bound to protein tag (SNAP protein tags) | Fluorescence signal in HeLa-WT cells (no protein tag expressed) [3] | Fluorescent signal in HeLa cells with protein tags expressed, relative to HeLa-WT [3] [times] | Labeling of subcellular organelle structures (HeLa cells) | Fluorescence signal after indoleacetic acid-induced protein degradation (SNAP-IAA17-H2B protein) | Fluorescence signal at intercellular channels (fusion protein CX43-SNAP) | Liver fluorescence signal intensity of pcdna3.1-SNAP group relative to control group (SNAP protein tag [4]) | Liver fluorescence of control plasmid pcdna3.1-CAT group (SNAP protein tag [5])
CN(CCOC(=O)NCc1ccc(COc2nc(N)nc3[nH]cnc23)cc1)c1cc2sc(/C=C(\C#N)C(=O)OC(C)(C)C)cc2s1 [probe 21] | 555 | 1481 | <0.001 | 560 | 0.48 | no corresponding fluorescence signal was detected | ~300 | clearly display a variety of subcellular organelle structures without washing | basically invisible | long-columnar specific fluorescence signal between two cells |  | 
CC1=CC(C)(C)N(CCOC(=O)NCc2ccc(COc3nc(N)nc4[nH]cnc34)cc2)c2ccc(/C=C(\C#N)c3nc4ccccc4o3)cc21 [probe 88] | 595 | 298 | <0.001 | 621 | 0.29 | no corresponding fluorescence signal was detected | ~300 |  |  |  | more than 20 times | very low
